Common to all, as to type: cell-based
The test system of one assay is cortical neurons. Description: NMDA/DHPG neuronal toxicity in cortical neurons (EthD-1/Calcein AM live/dead). From the text:
In FIGS. 8a and b, cortical neurons were co-transfected with green fluorescent protein (GFP) and vector DNA, myc-mGluR1α or myc-mGluR1α936Δ, respectively. […] Twelve hours later, neurons were stained with EthD-1 to label dead cells. Arrowheads in FIG. 8a indicate EthD-1 positive GFP-expressing neurons. * p<0.05. FIGS. 8c and d are representative photos and bar graphs showing differential roles of endogenous mGluR1 in neuronal toxicity before and after NMDA-induced truncation. Cortical neurons were treated as indicated and were stained with EthD-1 (for dead cells) and calcein AM (for live cells) 24 hours later. * p<0.001.
We then tested whether calpain-mediated truncation of endogenous mGluR1α also alters its roles in excitotoxicity. We used NMDA to elicit mGluR1α truncation and evaluated the roles of mGluR1 in neuronal toxicity by applying DHPG before and after truncation. Fourteen DIV cortical neurons cultured on 18×18 mm coverslips were divided into 6 groups, which received the following treatments, respectively: 1) “Control”: vehicle; 2) “NMDA”: 100 μM NMDA for 1 hour; 3) “DHPG before NMDA”: DHPG, 100 μM, for 1 hour, followed by 100 μM NMDA for 1 hour; 4) “DHPG after NMDA”: NMDA, 100 μM, for 1 hour, followed by 100 μM DHPG for 1 hour; 5) “DHPG+LY before NMDA”: 100 μM DHPG was co-applied with 100 μM LY367385 for 1 hour and followed by 100 μM NMDA for 1 hour; 6) “DHPG+LY after NMDA”: NMDA 100 μM for 1 hour, followed by 100 μM DHPG co-applied with 100 μM LY367385. Twenty-four hours after treatment, all neurons were stained for 20 minutes with 0.5 μM EthD-1 to label dead cells and 2 μM Calcein AM to label live cells. After three washes with culture medium, coverslips were mounted and one microscopy photo was immediately taken from the center area of each coverslip. EthD-1 and Calcein AM positive cells on each photo were then counted. The percentage of cell death was calculated as the number of EthD-1 positive cell/(number of EthD-1 positive cell+number of Calcein AM positive cell)*100%.

Assay [1] deals with myc-mGluR1α. Description: Targeting of myc-mGluR1α in transfected cortical neurons after NMDA (immunostaining). The settings on record: NMDA 50 μM, 1 hour; 124 out of 367 neurons. The procedure:
In FIG. 7A, cortical neurons were co-transfected with DsRED and myc-mGluR1α. After 48 h, neurons were fixed and stained with anti-myc and anti-DsRED antibodies. Some of the neurons were pre-treated with NMDA (50 μM, 1 h), and recovered for 3 h after washing out NMDA before fixation. Myc-mGluR1α (upper panel) was absent in axons (arrowhead) under control conditions. After pre-treatment with NMDA (lower panel), staining of myc-mGluR1α appeared in the proximal segment of axons. In FIG. 7B, cortical neurons were co-transfected with DsRED and myc-mGluR1α. After 48 h, neurons were fixed and stained with anti-DsRED and anti-mGluR1α1142-1160 antibodies with (lower panel) or without (upper panel) pretreatment with NMDA. Staining for mGluR1α was absent from axons in both conditions. In FIG. 7C, cortical neurons were co-transfected with DsRED and myc-mGluR1α936Δ. After 48 h, neurons were fixed and stained with anti-myc and anti-DsRED antibodies. […]
Previous studies have shown that the C-terminus domain of mGluR1α is crucial for its dendritic localization. […] But in ˜34% of neurons treated with NMDA (124 out of 367 neurons counted), the N-terminal fragment of wild-type mGluR1α could be detected in axons, especially in the proximal segment, whereas immunoreactivity against the C-terminus of mGluR1α was still restricted to dendrites (FIG. 7B).

In the next assay the test system is mGluR1α. In words: Glutamate/NMDA-induced C-terminal truncation of mGluR1α in cultured cortical neurons (immunoblot). From the text:
Total cell lysates were separated by SDS-PAGE and probed with an antibody against the carboxyl terminus (residue 1142-1160) of mGluR1α. […] Total cell lysates were probed with an anti-myc antibody. […] Total cell lysates were probed with antibodies against mGluR5, G1uR2/3 and VGluT1 respectively.
Total cell lysate was collected immediately after treatment and subjected to SDS-PAGE and immunoblotting with an antibody against the carboxyl terminus (residues 1142-1160) of mGluR1α (FIG. 2A). […] Neurons were transfected with a calcium phosphate precipitation method modified for high transfection rate (Jian et al., Gene Ther 11:1301-1311, 2004).
Cortical neurons were treated with NMDA at the indicated concentrations for 1 h or treated with NMDA (10 μM) for the indicated times. Total cell lysates were separated by SDS-PAGE and probed with antibodies against mGluR1α1142-1160, Results were normalized over control values and are means±s.e.m. of 4 experiments.
To determine whether activation of mGluR1α itself was required for the truncation, two distinct mGluR1α antagonists were applied.
To further characterize NMDA-induced mGluR1α truncation, the concentration- and time-dependencies of the effects of NMDA were studied. Cortical neurons were first incubated with different concentrations of NMDA for a fixed period of time (1 hour) (FIG. 3F). […] In a following experiment, cortical neurons were incubated with 10 μM NMDA for different durations ranging from 1 to 60 min (FIG. 3G).
Cortical neurons were treated with NMDA (10 μM, 1 h). Total cell lysates were separated by SDS-PAGE and probed with antibodies against spectrin and mGluR1α1142-1160, respectively. Only the degradation bands of spectrin (spectrin DB, at ˜145 KD) are shown. […] In FIG. 4C, purified myc-mGluR1α was digested with μ-calpain at the indicated concentrations (U/ml) for 30 min. The digested material was processed for SDS-PAGE and subjected to silver staining or immunoblots with anti-myc or anti-mGluR1α1142-1160 antibodies. […] The 1st lane was the myc-mGluR1α immunoprecipitated from 293 cells; the 2nd and 3rd lanes were immunoprecipitated myc-mGluR1α digested with indicated concentration of calpain. […] FIG. 4F is the alignment of mGluR1 (902-941) and mGluR5 (889-927) surrounding the calpain cleavage site.
In this set of experiments, we determined which protease(s) mediated NMDA-induced truncation of mGluR1α. […] Cortical neurons were pretreated with a calpain inhibitor, the cell-permeable calpain-inhibitor III, or the caspase inhibitor cpm-VAD-CHO for 2 hours and then incubated in the absence or presence of 100 µM NMDA for 1 hour. […] To further confirm calpain activation by NMDA under our experimental conditions, we determined the levels of the calpain-specific spectrin degradation fragments.
(In general: A western blot detects proteins with antibodies after separation by electrophoresis.)

The next assay has as its target myc-mGluR1α936Δ (Rattus norvegicus, UniProt P23385). Description: DHPG-induced whole-cell currents in HEK293 cells transfected with myc-mGluR1α936Δ. Conditions: 100 μM DHPG. The procedure:
(§1) Representative current traces recorded from HEK293 cells transfected with either myc-mGluR1α (left panel) or myc-mGluR1α936Δ (right panel) and GIRK1, GIRK2 (top) or TRPC1 (bottom). DHPG (100 μM in extracellular solution) was applied using a fast perfusion system for the duration indicated by the scale bars. Each trace is the average of 5 continuous sweeps. The bar graphs represent the means±S.E.M. of DHPG-induced current amplitude recorded in cells transfected with myc-mGluR1α or myc-mGluR1α936Δplus GIRK1, GIRK2 (top right) or TRPC1 (bottom right) (n=3-7). In FIG. 6B, cortical neurons were pre-treated with NMDA (50 1μM, 1 h). Two hours after washing NMDA, neurons were treated with the mGluR1 agonist DHPG (50 μM) for 10 min in the absence or presence of LY367385. Total cell lysates were collected and probed with anti-Phospho Akt (Ser473) antibody.
(§2) Because activation of mGluR1α can also stimulate non-selective cation excitatory postsynaptic conductances (EPSCs), we therefore analyzed mGluR1α-dependent currents before and after calpain-mediated truncation. We transfected HEK293 cells with either myc-mGluR1α or myc-mGluR1α936Δ plus GIRK1, GIRK2 or TRPC1.

The next assay has as its system Phospho Akt (Ser473). Description: Akt phosphorylation (Ser473) in cortical neurons (Western blot). The settings on record: DHPG 50 μM, 10 min. As for the experimental part: as §1, with “antibody. Without pretreatment with NMDA, DHPG increased the levels of Phospho-Akt (* p<0.05), an effect blocked by LY367385.” for “antibody.”
As reported in previous studies, mGluR1 activation can stimulate the PI3K-Akt signaling pathway through the mGluRI-Homer-PIEL-PI3K signaling complex. Since the Homer-binding domain of mGluR1α is located in the extreme C-terminus, which is removed after calpain-mediated truncation, it was interesting to determine whether this signaling mechanism remained functional. We first induced mGluR1α truncation by treating cortical neurons with 50 μM NMDA for 1 hour. Two hours after washing out NMDA, neurons were incubated with the mGluRI agonist DHPG (50 μM) for 10 min. Neurons were then lysed and levels of phosphorylated Akt were determined on Western blots. Consistent with a previous study, in cortical neurons that were not pre-treated with NMDA, DHPG induced an increase in phosphorylated Akt levels (p<0.05, n=4, Student's t-test for Control vs. DHPG), an effect which was blocked by the mGluR1 selective antagonist LY367385 (p<0.05, n=4, for DHPG+LY367385 vs. DHPG) (FIG. 6B). […] Thus, mGluR1α-PI3K-Akt signaling pathway was disrupted by calpain-mediated mGluR1α truncation.

In assay [2] the test system is myc-mGluR1α. In words: DHPG-induced calcium transients in HEK293 cells transfected with myc-mGluR1α (calcium imaging). The settings on record: 100 μM DHPG; untransfected cells. The source says: (§3) In this set of experiments, HEK293 cells were co-transfected with DsRed (red fluorescent protein) and wild-type myc-mGluR1α or truncated myc-mGluR1α936Δ. The mGluRI agonist DHPG was used to induce mGluR1α-mediated calcium transients. In FIG. 5A, photos in the left show the expression of DsRed, labeling transfected cells; photos in the middle illustrate the fluorescent signal from the calcium indicator Oregon green 488 BAPTA-1 AM before and after DHPG application; photos in the right are obtained by subtracting “before DHPG” from “after DHPG”, thus representing DHPG-induced calcium transients.
(§4) The main signaling mechanism activated by mGluR1α consists of PI hydrolysis through G-protein and phospholipase C, which eventually leads to calcium release from internal calcium stores. Therefore we first performed calcium imaging to determine whether mGluR1α remains functional following C-terminal truncation. Wild-type mGluR1 (myc-mGluR1α) or the truncated form (myc-mGluR1α936Δ) was cotransfected with DsRed into HEK293 cells. Forty-eight hours after transfection, cells were loaded with a calcium reporter, Oregon green 488 BAPTA-1 AM (0.63% in extracellular solution).

Assay [3] deals with T1, myc-mGluR1α (Rattus norvegicus, UniProt P23385). The description is as above. Conditions: 100 μM DHPG; myc-mGluR1α-transfected HEK293 cells.
Description: as §3, §4

Assay [4] has as its target T1, myc-mGluR1α. Description: DHPG-induced whole-cell currents in HEK293 cells transfected with myc-mGluR1α. The settings on record: 100 μM DHPG. As for the experimental part: as §1, §2

T1 sequence (P23385 19-1199): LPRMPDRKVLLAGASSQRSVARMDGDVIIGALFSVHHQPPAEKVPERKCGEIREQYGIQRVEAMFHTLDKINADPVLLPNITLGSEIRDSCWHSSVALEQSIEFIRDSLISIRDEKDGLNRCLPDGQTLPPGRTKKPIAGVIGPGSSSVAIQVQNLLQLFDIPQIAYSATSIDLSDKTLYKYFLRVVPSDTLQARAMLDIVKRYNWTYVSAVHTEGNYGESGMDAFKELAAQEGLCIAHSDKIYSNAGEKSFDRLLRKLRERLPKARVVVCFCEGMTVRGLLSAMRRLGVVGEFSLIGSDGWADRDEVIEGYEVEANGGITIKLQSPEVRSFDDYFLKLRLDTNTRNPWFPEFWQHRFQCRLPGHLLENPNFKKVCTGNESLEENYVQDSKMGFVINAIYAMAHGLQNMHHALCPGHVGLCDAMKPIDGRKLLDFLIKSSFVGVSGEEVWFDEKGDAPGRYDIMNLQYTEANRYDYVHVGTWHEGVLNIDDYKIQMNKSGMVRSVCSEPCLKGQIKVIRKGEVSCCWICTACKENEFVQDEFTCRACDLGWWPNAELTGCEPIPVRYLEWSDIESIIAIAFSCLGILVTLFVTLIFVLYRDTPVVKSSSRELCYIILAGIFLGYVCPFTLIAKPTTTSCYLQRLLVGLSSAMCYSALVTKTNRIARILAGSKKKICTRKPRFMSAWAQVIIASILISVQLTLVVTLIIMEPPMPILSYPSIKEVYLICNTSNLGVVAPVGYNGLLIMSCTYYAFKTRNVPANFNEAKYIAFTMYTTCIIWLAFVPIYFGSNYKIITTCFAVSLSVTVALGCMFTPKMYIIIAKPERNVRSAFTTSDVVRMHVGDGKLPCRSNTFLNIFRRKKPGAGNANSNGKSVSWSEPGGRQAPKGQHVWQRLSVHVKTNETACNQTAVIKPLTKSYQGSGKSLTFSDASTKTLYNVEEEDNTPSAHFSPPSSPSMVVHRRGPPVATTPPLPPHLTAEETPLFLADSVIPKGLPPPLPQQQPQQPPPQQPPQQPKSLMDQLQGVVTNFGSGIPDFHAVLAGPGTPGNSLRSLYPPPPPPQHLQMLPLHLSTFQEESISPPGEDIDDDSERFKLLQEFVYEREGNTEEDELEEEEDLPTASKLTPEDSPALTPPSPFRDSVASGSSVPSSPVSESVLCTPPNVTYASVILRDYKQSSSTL
myc-mGluR1α936Δ, sequence (P23385 19-936 limits assumed, stated change not applied): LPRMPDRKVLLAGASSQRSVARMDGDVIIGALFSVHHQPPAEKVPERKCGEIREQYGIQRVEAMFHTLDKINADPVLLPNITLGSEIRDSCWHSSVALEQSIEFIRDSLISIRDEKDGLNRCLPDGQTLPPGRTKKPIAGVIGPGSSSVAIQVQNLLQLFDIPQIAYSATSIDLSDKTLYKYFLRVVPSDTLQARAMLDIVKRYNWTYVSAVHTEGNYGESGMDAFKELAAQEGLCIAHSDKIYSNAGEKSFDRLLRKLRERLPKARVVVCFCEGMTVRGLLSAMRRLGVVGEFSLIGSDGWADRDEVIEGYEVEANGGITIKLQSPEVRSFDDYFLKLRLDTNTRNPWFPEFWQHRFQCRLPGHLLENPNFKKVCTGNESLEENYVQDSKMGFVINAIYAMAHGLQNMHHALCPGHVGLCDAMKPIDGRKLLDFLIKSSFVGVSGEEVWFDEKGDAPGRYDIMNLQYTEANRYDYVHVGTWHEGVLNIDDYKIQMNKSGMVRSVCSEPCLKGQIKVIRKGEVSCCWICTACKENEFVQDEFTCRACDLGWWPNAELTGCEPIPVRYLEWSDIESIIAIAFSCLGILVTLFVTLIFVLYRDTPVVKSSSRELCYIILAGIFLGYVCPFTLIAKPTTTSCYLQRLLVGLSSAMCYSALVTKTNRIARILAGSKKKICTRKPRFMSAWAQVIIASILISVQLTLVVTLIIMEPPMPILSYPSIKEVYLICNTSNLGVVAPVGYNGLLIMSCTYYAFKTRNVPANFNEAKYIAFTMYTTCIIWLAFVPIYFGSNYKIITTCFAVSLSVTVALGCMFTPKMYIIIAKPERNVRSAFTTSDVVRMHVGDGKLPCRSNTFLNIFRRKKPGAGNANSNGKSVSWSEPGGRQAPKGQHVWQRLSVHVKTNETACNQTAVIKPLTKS

The EC50 is the concentration giving half of the maximal effect. Low values mean greater potency, high ones weaker potency. As to `CN[C@H](CC(=O)O)C(=O)O` [NMDA], in the assay on cortical neurons (100 μM NMDA for 1 hour, 24 hours after treatment), the cell death is reported as 37%. For the same compound, in the assay with myc-mGluR1α [1], the “neurons with N-terminal fragment of mGluR1α detected in axons” value is given as approximately 34%. For the same compound, in the assay on mGluR1α (10 μM NMDA), the “minimum time required to induce truncation” value is listed as 5 min and the “treatment time after which truncation was maximal” value is given as 20 min. Also, in the assay with mGluR1α (1 hour incubation), the EC50 is approximately 10 µM and the “minimum concentration required to induce a significant mGluR1α truncation” value is 10 µM.

Turning to `N[C@H](C(=O)O)c1cc(O)cc(O)c1` [DHPG], the entries for the “mean amplitude of DHPG-induced whole-cell current” value at myc-mGluR1α936Δ (myc-mGluR1α936Δ/GIRK1,2-transfected cells), on myc-mGluR1α936Δ (myc-mGluR1α936Δ/TRPC1-transfected cells) and on myc-mGluR1α [4] (myc-mGluR1α/TRPC1-transfected cells) were −1.4±0.8 pA, −9.7±6.8 pA and −36.7±9.6 pA, respectively. Also, the “phosphorylated Akt levels” value was “failed to increase” with Phospho Akt (Ser473) (2 h after NMDA 50 μM 1 h pre-treatment) and “increase” in the assay with Phospho Akt (Ser473) (neurons not pre-treated with NMDA). The “change in fluorescent calcium signals” value with myc-mGluR1α [2] is recorded as “no change”. The “calcium transient, max. ΔF/F” value at myc-mGluR1α [3] came to 30.6±4.2%. Also, the cell death with cortical neurons (DHPG 100 μM 1 hour after 100 μM NMDA 1 hour, 24 hours after) is on record as 54%; in the assay on cortical neurons (DHPG 100 μM 1 hour before 100 μM NMDA 1 hour, 24 hours after) it was 29%. On myc-mGluR1α [4] (myc-mGluR1α/GIRK1,2-transfected cells), the “average amplitude of DHPG-induced whole-cell current” value is listed as −24.2±6.3 pA.

The values are drawn from patent publication US8642559B2, “C-terminal domain truncation of mGluR1α by calpain and uses thereof” (priority 2006, dated 2014).
